# Source: US20250059188A1, “ARYLSULPHONAMIDE COMPOUNDS” (Anaxis Pharma Pty Ltd, priority 2021, published 2025)
# What was measured:
# human MLKL (full length) = human MLKL (full length) (Homo sapiens (Human), UniProt Q8NB16); assay: KINOMEscan binding assay, human MLKL (full length); settings: equilibrium dissociation constant
# Outline: (§1)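 KINOMEscan competition binding using kinase-tagged T7 phage or HEK-293-produced DNA-tagged protein captured on ligand beads, with eluted protein quantified by qPCR. Compounds were run as an 11-point 3-fold series, top 30,000 nM, in 1% DMSO. Kd was fitted with the Hill equation, slope fixed at −1.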
# human RIPK1 = human RIPK1 (Homo sapiens (Human), UniProt Q13546); assay: KINOMEscan binding assay, human RIPK1; settings: equilibrium dissociation constant
# Chain of human RIPK1 (Q13546 whole entry): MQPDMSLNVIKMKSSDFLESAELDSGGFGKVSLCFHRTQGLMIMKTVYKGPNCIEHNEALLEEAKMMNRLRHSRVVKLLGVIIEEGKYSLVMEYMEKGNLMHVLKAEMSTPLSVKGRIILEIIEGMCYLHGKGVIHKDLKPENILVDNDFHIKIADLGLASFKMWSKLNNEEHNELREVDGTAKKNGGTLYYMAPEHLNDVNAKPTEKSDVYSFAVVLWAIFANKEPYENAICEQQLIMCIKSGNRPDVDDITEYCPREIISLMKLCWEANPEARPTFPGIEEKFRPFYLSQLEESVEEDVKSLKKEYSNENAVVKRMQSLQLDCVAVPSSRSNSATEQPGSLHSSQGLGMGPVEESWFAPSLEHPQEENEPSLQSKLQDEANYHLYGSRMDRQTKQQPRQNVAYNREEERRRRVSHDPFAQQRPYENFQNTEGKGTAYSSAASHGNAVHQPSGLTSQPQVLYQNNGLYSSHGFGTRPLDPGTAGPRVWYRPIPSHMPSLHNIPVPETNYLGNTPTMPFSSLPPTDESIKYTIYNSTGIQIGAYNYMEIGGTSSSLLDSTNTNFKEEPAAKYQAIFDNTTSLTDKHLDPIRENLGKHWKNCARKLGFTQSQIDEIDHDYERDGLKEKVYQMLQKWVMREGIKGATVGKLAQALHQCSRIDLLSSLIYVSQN
# Outline: as §1
# human RIPK3 = human RIPK3 (Homo sapiens (Human), UniProt Q9Y572); assay: KINOMEscan binding assay, human RIPK3; settings: equilibrium dissociation constant
# Chain of human RIPK3 (Q9Y572 whole entry): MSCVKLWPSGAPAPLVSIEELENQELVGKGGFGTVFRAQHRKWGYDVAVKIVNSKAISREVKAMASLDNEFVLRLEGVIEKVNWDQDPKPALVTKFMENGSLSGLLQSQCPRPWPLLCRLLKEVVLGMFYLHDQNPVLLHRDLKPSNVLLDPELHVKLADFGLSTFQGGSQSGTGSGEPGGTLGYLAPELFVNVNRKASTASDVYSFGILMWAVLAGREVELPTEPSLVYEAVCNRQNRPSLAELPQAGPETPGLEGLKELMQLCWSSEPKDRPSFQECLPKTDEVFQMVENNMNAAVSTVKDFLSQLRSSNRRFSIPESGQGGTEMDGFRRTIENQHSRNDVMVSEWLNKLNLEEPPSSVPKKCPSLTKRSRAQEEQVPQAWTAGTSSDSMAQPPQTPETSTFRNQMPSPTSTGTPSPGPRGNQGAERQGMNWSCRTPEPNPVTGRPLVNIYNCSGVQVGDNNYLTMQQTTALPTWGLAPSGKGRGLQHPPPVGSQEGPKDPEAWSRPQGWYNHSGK
# Outline: as §1
# [1] = system: U937 human histiocytic leukemia cell line; assay: Inhibition of TSQ induced necroptosis in U937 cells (CellTitre-Glo); settings: Homo sapiens, U-937, TSQ cocktail (TNF, Smac mimetic, Q-VD-OPh), 48 hours, read-out: Inhibition of TSQ-induced necroptosis (IC50 cell-based assay)
# Outline: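 Necroptosis was induced with TNF-Fc (100 ng/ml), Smac mimetic (500 nM) and Q-VD-OPh (10 μM) in 20000 U937 cells/well exposed to a 10-point, 3-fold compound series (top 36 μM, 0.3% DMSO). ATP luminescence read after 48 h; 4-parameter fit gave IC50. Parallel TSQ-free wells assessed compound toxicity.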
# U937 cells = assay: Counter screen: U937 cell viability without TSQ cocktail (off-target effect); design: species or system human; settings: Homo sapiens, U-937, compound without TSQ cocktail, read-out: Off-target effect (IC50 cell-based assay)
# Outline: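 Off-target viability counter screen: compounds titrated 36 μM down 1:3 over 10 points (0.3% DMSO) on 20,000 U937 cells/well, no TNF/Smac mimetic/Q-VD-OPh added, 48 h incubation. ATP-based CellTiter-Glo luminescence, four-parameter logistic IC50.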
# Chain of human MLKL (full length) (Q8NB16 whole entry): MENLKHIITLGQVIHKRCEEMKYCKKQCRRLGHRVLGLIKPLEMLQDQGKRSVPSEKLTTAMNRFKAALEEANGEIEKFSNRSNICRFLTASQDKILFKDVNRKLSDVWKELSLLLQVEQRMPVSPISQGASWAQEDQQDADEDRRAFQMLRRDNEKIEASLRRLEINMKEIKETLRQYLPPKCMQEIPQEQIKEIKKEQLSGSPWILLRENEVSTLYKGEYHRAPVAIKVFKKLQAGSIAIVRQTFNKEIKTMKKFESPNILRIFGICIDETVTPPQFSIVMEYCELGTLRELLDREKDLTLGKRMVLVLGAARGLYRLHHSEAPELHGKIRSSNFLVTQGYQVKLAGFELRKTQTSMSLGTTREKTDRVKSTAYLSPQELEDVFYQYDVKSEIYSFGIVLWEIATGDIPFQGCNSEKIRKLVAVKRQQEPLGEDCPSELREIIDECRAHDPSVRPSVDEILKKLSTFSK
Structure (SMILES),Kd (human MLKL (full length)) [µM],Kd (human RIPK1) [µM],Kd (human RIPK3) [µM],IC50 [1] [µM],IC50 (U937 cells) [µM]
"C[C@H](Oc1cc(-c2nn(C)c3c(-c4cnn(C5CCN(C)CC5)c4)cnc(N)c23)ccc1NS(=O)(=O)C(F)F)c1ccc(F)cc1 [Compound 46, (S)-N-(4-(4-amino-1-methyl-7-(1-(1-methylpiperidin-4-yl)-1H-pyrazol-4-yl)-1H-pyrazolo[4,3-c]pyridin-3-yl)-2-(1-(4-fluorophenyl)ethoxy)phenyl)-1,1-difluoromethanesulfonamide]",0.001 to 0.1,> 10,> 10,0.01 to 1,1 to 10
"C[C@H](Oc1cc(-c2nn(C)c3c(-c4cnn(C5CCC(C)(C)N(C)C5)c4)cnc(N)c23)ccc1NS(=O)(=O)C(F)F)c1ccc(F)cc1 (stereo partly shown) [Compound 104, N-(4-{4-amino-1-methyl-7-[1-(1,6,6-trimethylpiperidin-3-yl)-1H-pyrazol-4-yl]-1H-pyrazolo[4,3-c]pyridin-3-yl}-2-[(1 S)-1-(4-fluorophenyl)ethoxy]phenyl)-1,1-difluoromethanesulfonamide]",< 0.001,> 10,> 10,< 0.01,> 10
"CC(=O)N1CCC(n2cc(-c3cnc(N)c4c(-c5ccc(NS(=O)(=O)C(F)F)c(O[C@@H](C)c6ccc(F)cc6)c5)nn(C)c34)cn2)CC1 [Compound 109, (S)—N-(4-(7-(1-(1-acetylpiperidin-4-yl)-1H-pyrazol-4-yl)-4-amino-1-methyl-1H-pyrazolo[4,3-c]pyridin-3-yl)-2-(1-(4-fluorophenyl)ethoxy)phenyl)-1,1-difluoromethanesulfonamide]",< 0.001,> 10,> 10,< 0.01,> 10
"C[C@H](Oc1cc(-c2nn(C)c3c(-c4cnn(C5CCN(C)C(C)(C)C5)c4)cnc(N)c23)ccc1NS(=O)(=O)C(F)F)c1ccc(F)cc1 (single isomer, unassigned) [Compound 154, N-(4-(4-amino-1-methyl-7-(1-((R*)-1,2,2-trimethylpiperidin-4-yl)-1H-pyrazol-4-yl)-1H-pyrazolo[4,3-c]pyridin-3-yl)-2-((S)-1-(4-fluorophenyl)ethoxy)phenyl)-1,1-difluoromethanesulfonamide]",< 0.001,> 10,> 10,< 0.01,> 10
"C[C@H](Oc1cc(-c2nn(C)c3c(-c4ccc5c(cnn5C)c4)cnc(N)c23)ccc1NS(=O)(=O)C(F)F)c1ccc(F)cc1 [Compound 166, (S)-N-(4-(4-amino-1-methyl-7-(1-methyl-1H-indazol-5-yl)-1H-pyrazolo[4,3-c]pyridin-3-yl)-2-(1-(4-fluorophenyl)ethoxy)phenyl)-1,1-difluoromethanesulfonamide]",0.001 to 0.1,> 10,> 10,0.01 to 1,> 10
"C[C@H](Oc1cc(-c2nn(C)c3c(-c4cnn(C5CCC(F)(F)C5)c4)cnc(N)c23)ccc1NS(=O)(=O)C(F)F)c1ccc(F)cc1 (stereo partly drawn) [Compound 120, N-(4-{4-amino-7-[1-(3,3-difluorocyclopentyl)-1H-pyrazol-4-yl]-1-methyl-1H-pyrazolo[4,3-c]pyridin-3-yl}-2-[(1S)-1-(4-fluorophenyl)ethoxy]phenyl)-1,1-difluoromethanesulfonamide]",0.001 to 0.1,> 10,> 10,< 0.01,> 10
[2H]C([2H])([2H])N1CCC(n2cc(-c3cnc(N)c4c(-c5ccc(NS(=O)(=O)C(F)F)c(O[C@@H](C)c6ccc(F)cc6)c5)nn(C)c34)cn2)CC1 [Compound 103],< 0.001,> 10,> 10,< 0.01,> 10
"C[C@H](Oc1cc(-c2nn(C)c3c(-c4cnn(C5CCC(F)(F)CC5)c4)cnc(N)c23)ccc1NS(=O)(=O)C(F)F)c1ccc(F)cc1 [Compound 146, (S)-N-(4-(4-amino-7-(1-(4,4-difluorocyclohexyl)-1H-pyrazol-4-yl)-1-methyl-1H-pyrazolo[4,3-c]pyridin-3-yl)-2-(1-(4-fluorophenyl)ethoxy)phenyl)-1,1-difluoromethanesulfonamide]",0.001 to 0.1,> 10,> 10,< 0.01,> 10
"C[C@H](Oc1cc(-c2nn(C)c3c(-c4cnn(C5CCN(C)C6(CC6)C5)c4)cnc(N)c23)ccc1NS(=O)(=O)C(F)F)c1ccc(F)cc1 (single isomer, unassigned) [Compound 170, N-(4-(4-amino-1-methyl-7-(1-((S*)-4-methyl-4-azaspiro[2.5]octan-7-yl)-1H-pyrazol-4-yl)-1H-pyrazolo[4,3-c]pyridin-3-yl)-2-((S)-1-(4-fluorophenyl)ethoxy)phenyl)-1,1-difluoromethanesulfonamide]",0.001 to 0.1,> 10,> 10,0.01 to 1,> 10
"Cn1nc(-c2ccc(NS(=O)(=O)C(F)F)c(OCc3ccc(Cl)c(F)c3)c2)c2c(N)ncc(-c3cnn(C4CCOCC4)c3)c21 [Compound 132, N-(4-(4-amino-1-methyl-7-(1-(tetrahydro-2H-pyran-4-yl)-1H-pyrazol-4-yl)-1H-pyrazolo[4,3-c]pyridin-3-yl)-2-((4-chloro-3-fluorobenzyl)oxy)phenyl)-1,1-difluoromethanesulfonamide]",< 0.001,> 10,> 10,0.01 to 1,> 10
"COCC(Oc1cc(-c2nn(C)c3c(-c4cnn(C5CCN(C)CC5)c4)cnc(N)c23)ccc1NS(=O)(=O)C(F)F)c1ccc(F)cc1 (stereo not shown) [Compound 139, N-(4-(4-amino-1-methyl-7-(1-(1-methylpiperidin-4-yl)-1H-pyrazol-4-yl)-1H-pyrazolo[4,3-c]pyridin-3-yl)-2-(1-(4-fluorophenyl)-2-methoxyethoxy)phenyl)-1,1-difluoromethanesulfonamide]",0.001 to 0.1,> 10,> 10,0.01 to 1,> 10
"C[C@H](Oc1cc(-c2nn(C)c3c(-c4cnn(C5CC(C)(C)N(C)C(C)(C)C5)c4)cnc(N)c23)ccc1NS(=O)(=O)C(F)F)c1ccc(F)cc1 [Compound 162, (S)-N-(4-(4-amino-1-methyl-7-(1-(1,2,2,6,6-pentamethylpiperidin-4-yl)-1H-pyrazol-4-yl)-1H-pyrazolo[4,3-c]pyridin-3-yl)-2-(1-(4-fluorophenyl)ethoxy)phenyl)-1,1-difluoromethanesulfonamide]",< 0.001,> 10,> 10,< 0.01,> 10
"C[C@H](Oc1cc(-c2nn(C)c3c(-c4cnn(C5CCOCC5)c4)cnc(N)c23)ccc1NS(=O)(=O)C(F)F)c1ccc(F)cc1 [Compound 19, (S)-N-(4-(4-amino-1-methyl-7-(1-(tetrahydro-2H-pyran-4-yl)-1H-pyrazol-4-yl)-1H-pyrazolo[4,3-c]pyridin-3-yl)-2-(1-(4-fluorophenyl)ethoxy)phenyl)-1,1-difluoromethanesulfonamide]",< 0.001,> 10,> 10,< 0.01,> 10
"C[C@@H](Oc1cc(-c2nn(C)c3c(-c4cnn(C5CCOCC5)c4)cnc(N)c23)ccc1NS(=O)(=O)C(F)F)c1ccc(F)cc1 [Compound 121, (R)-N-(4-(4-amino-1-methyl-7-(1-(tetrahydro-2H-pyran-4-yl)-1H-pyrazol-4-yl)-1H-pyrazolo[4,3-c]pyridin-3-yl)-2-(1-(4-fluorophenyl)ethoxy)phenyl)-1,1-difluoromethanesulfonamide]",< 0.001,> 10,> 10,0.01 to 1,> 10
"C[C@H](Oc1cc(-c2nn(C)c3c(-c4cnn(C5CCCC5)c4)cnc(N)c23)ccc1NS(=O)(=O)C(F)F)c1ccc(F)cc1 [Compound 30, (S)-N-(4-(4-amino-7-(1-cyclopentyl-1H-pyrazol-4-yl)-1-methyl-1H-pyrazolo[4,3-c]pyridin-3-yl)-2-(1-(4-fluorophenyl)ethoxy)phenyl)-1,1-difluoromethanesulfonamide]",0.001 to 0.1,> 10,> 10,< 0.01,> 10
"C[C@H](Oc1cc(-c2nn(C)c3c(-c4cnn(CC(F)(F)F)c4)cnc(N)c23)ccc1NS(=O)(=O)C(F)F)c1ccc(F)cc1 [Compound 116, (S)-N-(4-(4-amino-1-methyl-7-(1-(2,2,2-trifluoroethyl)-1H-pyrazol-4-yl)-1H-pyrazolo[4,3-c]pyridin-3-yl)-2-(1-(4-fluorophenyl)ethoxy)phenyl)-1,1-difluoromethanesulfonamide]",0.001 to 0.1,> 10,> 10,< 0.01,> 10
"C[C@H](Oc1cc(-c2nn(C)c3c(C#CC4CCNCC4)cnc(N)c23)ccc1NS(=O)(=O)C(F)F)c1ccc(F)cc1 [Compound 79, (S)—N-(4-(4-amino-1-methyl-7-(piperidin-4-ylethynyl)-1H-pyrazolo[4,3-c]pyridin-3-yl)-2-(1-(4-fluorophenyl)ethoxy)phenyl)-1,1-difluoromethanesulfonamide]",< 0.001,> 10,> 10,0.01 to 1,> 10
